Format in all cases: biochemical
Experiment [1] addresses T1, CDC25B (Homo sapiens, UniProt P30305).
T1 construct: fusion proteins which only carry the PTP activity domain were expressed in Escherichia coli DH5α; GST (N); made in house; host or cells: Escherichia coli DH5α
T1 sequence (P30305 431-538 limits assumed): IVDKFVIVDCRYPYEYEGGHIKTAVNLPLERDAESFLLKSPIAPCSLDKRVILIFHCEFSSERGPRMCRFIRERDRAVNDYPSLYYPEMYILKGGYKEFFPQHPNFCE
Kind of experiment: PTP assay with pNPP as substrate, CDC25B. To be noted: GST-ΔCDC25B PTP activity domain, 37 °C, pH 5.5. An excerpt:
(§1) Protein tyrosine phosphatases (PTPs) constitute a large family of signaling enzymes that control the cellular levels of protein tyrosine phosphorylation. Several “classical” PTPs are attractive therapeutic targets, including PTP1B for obesity and Type II diabetes, SHP1, and SHP2 and CDC25B for cancer. GST-ΔPTP1B, GST-ΔSHP2, GST-ΔSHP1, GST-ΔLAR and GST-ΔCDC25B fusion proteins which only carry the PTP activity domain were expressed in Escherichia coli DH5α and affinity purified with glutathione Sepharose (Amersham Biosciences, Piscataway, NJ, USA). p-Nitrophenyl phosphate (pNPP) was used in the enzymatic reactions to determine the intrinsic catalytic activities of the PTPs. All assays using pNPP as the substrate were performed in a buffered reaction medium containing 10 mM of sodium acetate (NaAc), 1 mM of ethylenediaminetetraacetic acid and 1 mM of dithiothreitol at 37 °C, pH 5.5. Sodium orthovanadate was used as the positive control. Every experiment was performed in triplicate. The inhibitory activity measurements of PTPs were performed with different concentrations (0, 2.5, 5, 10, 20, 40 µg mL^−1) of inhibitor and 20 µg mL^−1 of PTPs. The reaction mixture was incubated at 37 °C for 15 min and the catalytic activity was detected by monitoring the absorbance at 405 nm immediately after adding 12.5 mM of pNPP. IC50 (the concentration of an inhibitor that is required for 50% inhibition of an enzyme) data were derived from the experimental results.

The target of experiment [2] is T2, SHP1 (Homo sapiens, UniProt P29350).
T2 construct: fusion proteins which only carry the PTP activity domain were expressed in Escherichia coli DH5α; GST (N); made in house; host or cells: Escherichia coli DH5α
T2 sequence (P29350 244-515 limits assumed): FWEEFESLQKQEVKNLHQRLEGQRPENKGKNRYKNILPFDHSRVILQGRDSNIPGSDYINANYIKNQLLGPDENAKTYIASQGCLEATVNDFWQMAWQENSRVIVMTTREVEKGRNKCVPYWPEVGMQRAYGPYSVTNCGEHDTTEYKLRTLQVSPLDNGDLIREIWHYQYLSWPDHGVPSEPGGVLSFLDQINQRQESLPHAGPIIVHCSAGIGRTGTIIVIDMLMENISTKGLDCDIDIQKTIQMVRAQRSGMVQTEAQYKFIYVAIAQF
Put plainly: PTP assay with pNPP as substrate, SHP1. To be noted: GST-ΔSHP1 PTP activity domain, 37 °C, pH 5.5.
Excerpt: as §1

Experiment [3] addresses T3, LAR (Homo sapiens, UniProt P10586).
T3 construct: fusion proteins which only carry the PTP activity domain were expressed in Escherichia coli DH5α; GST (N); made in house; host or cells: Escherichia coli DH5α
T3 sequence (P10586 1352-1607 limits assumed): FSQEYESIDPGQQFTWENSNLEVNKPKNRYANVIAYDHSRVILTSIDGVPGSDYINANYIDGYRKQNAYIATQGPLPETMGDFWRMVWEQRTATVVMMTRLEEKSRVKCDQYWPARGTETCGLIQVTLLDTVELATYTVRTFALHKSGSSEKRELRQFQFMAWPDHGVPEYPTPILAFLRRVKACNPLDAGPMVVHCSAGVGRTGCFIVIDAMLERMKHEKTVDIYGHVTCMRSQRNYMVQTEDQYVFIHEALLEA
Put plainly: PTP assay with pNPP as substrate, LAR. To be noted: GST-ΔLAR PTP activity domain, 37 °C, pH 5.5.
Excerpt: as §1

Experiment [4] has as its target T4, SHP2 (Homo sapiens, UniProt Q06124).
T4 construct: fusion proteins which only carry the PTP activity domain were expressed in Escherichia coli DH5α; GST (N); made in house; host or cells: Escherichia coli DH5α
T4 sequence (Q06124 247-517 limits assumed): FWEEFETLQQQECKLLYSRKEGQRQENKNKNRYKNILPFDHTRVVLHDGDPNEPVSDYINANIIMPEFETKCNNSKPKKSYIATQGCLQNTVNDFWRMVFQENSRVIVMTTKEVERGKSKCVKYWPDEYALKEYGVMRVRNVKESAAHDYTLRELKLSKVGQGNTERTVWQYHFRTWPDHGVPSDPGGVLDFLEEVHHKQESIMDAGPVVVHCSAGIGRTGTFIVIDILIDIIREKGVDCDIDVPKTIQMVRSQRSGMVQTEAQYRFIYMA
Kind of experiment: PTP assay with pNPP as substrate, SHP2. The following applies: GST-ΔSHP2 PTP activity domain, 37 °C, pH 5.5.
Excerpt: as §1

Experiment [5] deals with T5, PTP1B (Homo sapiens, UniProt P18031).
T5 construct: fusion proteins which only carry the PTP activity domain were expressed in Escherichia coli DH5α; GST (N); made in house; host or cells: Escherichia coli DH5α
T5 sequence (P18031 3-277 limits assumed): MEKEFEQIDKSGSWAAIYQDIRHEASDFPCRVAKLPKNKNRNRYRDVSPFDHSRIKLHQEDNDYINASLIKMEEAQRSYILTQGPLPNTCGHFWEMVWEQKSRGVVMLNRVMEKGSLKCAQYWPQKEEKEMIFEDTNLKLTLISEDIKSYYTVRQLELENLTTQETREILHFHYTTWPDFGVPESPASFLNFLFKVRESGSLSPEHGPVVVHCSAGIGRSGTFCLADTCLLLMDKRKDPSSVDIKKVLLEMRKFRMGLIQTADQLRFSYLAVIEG
Put plainly: PTP assay with pNPP as substrate, PTP1B. To be noted: GST-ΔPTP1B PTP activity domain, 37 °C, pH 5.5. An excerpt: Protein tyrosine phosphatases (PTPs) constitute a large family of signaling enzymes that control the cellular levels of protein tyrosine phosphorylation. Several “classical” PTPs are attractive therapeutic targets, including PTP1B for obesity and Type II diabetes, SHP1, and SHP2 and CDC25B for cancer. GST-ΔPTP1B, GST-ΔSHP2, GST-ΔSHP1, GST-ΔLAR and GST-ΔCDC25B fusion proteins which only carry the PTP activity domain were expressed in Escherichia coli DH5α and affinity purified with glutathione Sepharose (Amersham Biosciences, Piscataway, NJ, USA). p-Nitrophenyl phosphate (pNPP) was used in the enzymatic reactions to determine the intrinsic catalytic activities of the PTPs. All assays using pNPP as the substrate were performed in a buffered reaction medium containing 10 mM of sodium acetate (NaAc), 1 mM of ethylenediaminetetraacetic acid and 1 mM of dithiothreitol at 37 °C, pH 5.5. […] Every experiment was performed in triplicate. The inhibitory activity measurements of PTPs were performed with different concentrations (0, 2.5, 5, 10, 20, 40 µg mL^−1) of inhibitor and 20 µg mL^−1 of PTPs. The reaction mixture was incubated at 37 °C for 15 min and the catalytic activity was detected by monitoring the absorbance at 405 nm immediately after adding 12.5 mM of pNPP.

Molecules are shown by their SMILES.

On to `COC(c1cc2c([nH]1)C(=O)c1cc(C(OC)C(C)C)[nH]c1C2=O)C(C)C` (centres unmarked) [Compound 1, 2,6-bis(1-methoxy-2-methylpropyl) pyrrolo[2,3-f]indole-4,8(1H,5H)-dione], for which the IC50 is 11.4 µM in experiment [1]; 15.6 µM in experiment [2]; 29.6 µM in experiment [3]; over 139 µM in experiment [4]; 34.9 µM in experiment [5].

`[Na+].[Na+].[Na+].[O]=[V]([O-])([O-])[O-]` [Sodium orthovanadate, reference compound]: in experiment [2], the “IC50 Values SHP1” value came to 4.3 µg/mL. In addition, the “IC50 Values SHP2” value in experiment [4] is listed as 122.2 µg/mL.

Regarding `CC1(O)C2OC(=O)CCC(=O)NC3(Oc4ccc(C(=O)O)c(O)c4C(=O)C13)C2(C)O` (single isomer, unassigned; (+)) [Compound 3], the half-maximal inhibitory concentration (IC50) in experiment [1] is 18 µM; in experiment [2] it was 11.6 µM; in experiment [3], over 119 µM; in experiment [4] it was 13.5 µM; in experiment [5], 17.3 µM.

Consider `Cc1cc(O)cc(O)c1C(=O)O[C@]1(C)C(=O)C=C2C=C(/C=C/C(=O)O)OC[C@H]2[C@@H]1O` [Compound 2, (E)-3-((7S,8S,8aS)-7-((2,4-dihydroxy-6-methylbenzoyl)oxy)-8-hydroxyl-7-methyl-6-oxo-6,7,8,8a-tetra-hydro-1H-isochromen-3-yl)acrylic acid], for which the 50% inhibitory concentration (IC50) in experiment [1] was 10.8 µM; in experiment [2] it was 8.17 µM; in experiment [3], 11.3 µM; in experiment [4] it was 19.2 µM; in experiment [5] it was 16.3 µM.

Usually IC50 stands for the concentration that inhibits the measured activity by half. A lower IC50 goes with inhibition by little substance.
